{"source": "patent US20170008888A1", "about": "(KYORIN PHARMACEUTICAL CO., LTD., priority 2014, published 2017)", "format_in_all_cases": "cell-based", "key": {"[1]": {"tested_on": "human CD4+ T cells", "assay": "Cytokines produced by human CD4+ T cells stimulated with PMA/ionomycin", "settings": "10 μM compound, PMA/ionomycin 20 h", "from_the_text": "Freshly isolated human peripheral blood mononuclear cells (PBMCs) were purchased from Astarte Biologics (Redmond, Wash.). CD4+ T cells were isolated from the PBMCs using the EasySep Negative Selection Human CD4+ T Cell Enrichment Kit (Stemcell Technologies, Vancouver, Canada) according to manufacturer's instructions briefly as follows: Unwanted cells were specifically labeled with a cocktail of bispecific tetrameric antibody complexes (TAC) against dextran and cell surface antigens (CD8, CD14, CD16, CD19, CD20, CD36, CD56, CD66b, CD123, TCRγ/δ, glycophorin A). Labeled cells were then targeted for removal by incubation with dextran-coated magnetic particles, leaving the desired CD4+ T cells.\nHuman CD4+ T cells, isolated as shown in protocol A, were seeded at 2e6 cells/ml in RPMI 1640 containing 10% (v/v) charcoal-dextran treated, heat inactivated FBS (Omega Scientific, Tarzana, Calif.), 0.05 mM 2-Mercaptoethanol (Sigma-Aldrich, St. Louis, Mo.), and 1×Pen/Strep Amphotericin B (Lonza, Allendale, N.J.). Cells were pre-treated with test compounds (10 μM) for 1 h at 37° C. in a humidified atmosphere at 5% CO2. Cells were then stimulated with 50 ng/ml phorbol 12-myristate 13-acetate (PMA)(Sigma-Aldrich, St. Louis, Mo.)+1 μg/ml ionomycin (Life Technologies, Grand Island, N.Y.) for 20 h at 37° C. in a humidified atmosphere at 5% CO2. Supernatant was collected and analyzed using Bio-Plex Pro Human Th17 Cytokine 15-Plex Panel (Bio-Rad Laboratories, Hercules, Calif.) as per manufacturer's protocols. Magnetic beads were read on the Bio-Plex MAGPIX multiplex reader instrument using the accompanying xPONENT 4.2 acquisition software (Bio-Rad Laboratories, Hercules, Calif.). Data were analyzed via the Bio-Plex Manager software v6.1 (Bio-Rad Laboratories).\nIL-1β, IL-2, IL-7, and IL-12 (p70) were below the limit of detection under conditions used. The concentrations of the observed analytes of the DMSO control, from top to bottom as listed, are as follows: 31, 585, 24178, 22, 48, 91, 728, 94, 156, 705, 15, 1045, 5501 pg/ml."}, "[2]": {"tested_on": "primary asthmatic human bronchial epithelial cells", "assay": "IL-17A- or IL-17F-mediated cytokine response by primary asthmatic human bronchial epithelial cells", "settings": "Epithelial cell, 48 h, 48 h", "experimental": "The virally immortalized, normal human bronchial epithelial cell line BEAS-2B was purchased from ATCC (Manassas, Va.). Primary bronchial epithelial cells isolated from a patient diagnosed with asthma were obtained from Lonza (Allendale, N.J.). Both cells were maintained in complete Bronchial Epithelial Cell Growth Medium (BEGM) (Lonza). Cells were seeded at 1e5 cells/ml and incubated at 37° C. in a humidified atmosphere at 5% CO2 overnight to adhere. Cells were pre-treated with test compounds (10 μM down by ⅕ in a 3- or 4-point serial dilution series) for 1 h at 37° C. in a humidified atmosphere at 5% CO2. DMSO at a final concentration of 0.1% served as the non-inhibited control. Budesonide (Selleck Chemicals, Houston, Tex.), a clinically approved glucocorticoid steroid for the treatment of asthma, was tested as a positive control at 0.25 μM. Cells were stimulated with 50 ng/ml of either human recombinant IL-17A or IL-17F (eBioscience, San Diego, Calif.), for 48 h. Supernatant was then collected and analyzed for cytokine concentrations using the Bio-Plex Pro Human Cytokine 17-Plex Panel (Bio-Rad Laboratories, Hercules, Calif.) according to the manufacturer's instructions. Magnetic beads were measured on the Bio-Plex MAGPIX multiplex reader instrument using the accompanying xPONENT 4.2 acquisition software (Bio-Rad Laboratories). Data were analyzed via the Bio-Plex Manager software v6.1 (Bio-Rad Laboratories). For the primary asthmatic bronchial epithelial cells, five (+IL-17F) to thirteen (+IL-17A) cytokines were in range of detection under the conditions used. […] Select cytokines were analyzed for comparison using the BEAS-2B cell line.\nBLQ: cytokine levels were below limits of quantitation."}, "[3]": {"tested_on": "diseased primary human lung fibroblasts", "assay": "Cytokine response by primary diseased human lung fibroblasts stimulated with IL-17A or IL-17F", "settings": "Fibroblast, 48 h", "experimental": "Primary lung fibroblasts isolated from a patient diagnosed with asthma were obtained from Lonza (Allendale, N.J.) and maintained in FGM-2 fibroblast growth medium (Lonza). Cells were seeded at 1e5 cells/ml and incubated at 37° C. in a humidified atmosphere at 5% CO2 overnight to adhere. Cells were pre-treated with test compounds (10 μM down by ⅕ in a 3- or 4-point serial dilution series) for 1 h at 37° C. in a humidified atmosphere at 5% CO2. DMSO at a final concentration of 0.1% served as the non-inhibited control. Cells were stimulated with 50 ng/ml of either human recombinant IL-17A or IL-17F (eBioscience, San Diego, Calif.), for 48 h. Supernatant was then collected and analyzed for cytokine concentrations using the Bio-Plex Pro Human Cytokine 17-Plex Panel (Bio-Rad Laboratories, Hercules, Calif.) according to the manufacturer's instructions. Magnetic beads were measured on the Bio-Plex MAGPIX multiplex reader instrument using the accompanying xPONENT 4.2 acquisition software (Bio-Rad Laboratories). Data were analyzed via the Bio-Plex Manager software v6.1 (Bio-Rad Laboratories). Only four (+IL-17F) to six (+IL-17A) cytokines were in range of detection under the conditions used.\nG-CSF concentrations were below the limit of detection when cells were stimulated with IL-17F."}, "[4]": {"settings": "+50 ng/ml IL-17A, read-out: EC50 values (μM), G-CSF"}, "[5]": {"settings": "+50 ng/ml IL-17A, read-out: EC50 values (μM), IL-6"}, "[6]": {"settings": "+50 ng/ml IL-17A, read-out: EC50 values (μM), IL-8"}, "[7]": {"settings": "+50 ng/ml IL-17A, read-out: EC50 values (μM), MCP-1"}, "[8]": {"settings": "+50 ng/ml IL-17F, read-out: EC50 values (μM), IL-6"}, "[9]": {"settings": "+50 ng/ml IL-17F, read-out: EC50 values (μM), IL-8"}}, "note": "Read-outs that look alike come from different tables or passages of the source."}
{"compound": "CCOc1cc(C(=O)N2CCC(N3CCN(C)CC3)CC2)ccc1Nc1cc2c(cn1)N(C)C(=O)c1ccccc1N2C", "note": "[Compound 61]", "values": [{"measurement": "inhibition at 10 µM", "setting": "[1]; read-out: Percent inhibition of G-CSF (relative to DMSO control)", "result": 25.3, "unit": "%"}, {"measurement": "inhibition at 10 µM", "setting": "[1]; read-out: Percent inhibition of GM-CSF (relative to DMSO control)", "result": 96.6, "unit": "%"}, {"measurement": "inhibition at 10 µM", "setting": "[1]; read-out: Percent inhibition of IFNγ (relative to DMSO control)", "result": -11.8, "unit": "%"}, {"measurement": "inhibition at 10 µM", "setting": "[1]; read-out: Percent inhibition of IL-4 (relative to DMSO control)", "result": -7.7, "unit": "%"}, {"measurement": "inhibition at 10 µM", "setting": "[1]; read-out: Percent inhibition of IL-5 (relative to DMSO control)", "result": 21.9, "unit": "%"}, {"measurement": "inhibition at 10 µM", "setting": "[1]; read-out: Percent inhibition of IL-6 (relative to DMSO control)", "result": 85.8, "unit": "%"}, {"measurement": "inhibition at 10 µM", "setting": "[1]; read-out: Percent inhibition of IL-10 (relative to DMSO control)", "result": 97.6, "unit": "%"}, {"measurement": "inhibition at 10 µM", "setting": "[1]; read-out: Percent inhibition of IL-13 (relative to DMSO control)", "result": 0.6, "unit": "%"}, {"measurement": "inhibition at 10 µM", "setting": "[1]; read-out: Percent inhibition of IL-17A (relative to DMSO control)", "result": 45.4, "unit": "%"}, {"measurement": "inhibition at 10 µM", "setting": "[1]; read-out: Percent inhibition of MCP-1 (relative to DMSO control)", "result": 65.5, "unit": "%"}, {"measurement": "inhibition at 10 µM", "setting": "[1]; read-out: Percent inhibition of MIP-1β (relative to DMSO control)", "result": 59.2, "unit": "%"}, {"measurement": "inhibition at 10 µM", "setting": "[1]; read-out: Percent inhibition of TNFα (relative to DMSO control)", "result": 50.9, "unit": "%"}, {"measurement": "EC50", "setting": "[2]; [4]", "result": 1.66, "unit": "µM"}, {"measurement": "EC50", "setting": "[2]; +50 ng/ml IL-17A, read-out: EC50 values (μM), GM-CSF", "result": 3.38, "unit": "µM"}, {"measurement": "EC50", "setting": "[2]; +50 ng/ml IL-17A, read-out: EC50 values (μM), IFN-γ", "result": "> 10", "unit": "µM"}, {"measurement": "EC50", "setting": "[2]; +50 ng/ml IL-17A, read-out: EC50 values (μM), IL-1β", "result": 1.26, "unit": "µM"}, {"measurement": "EC50", "setting": "[2]; +50 ng/ml IL-17A, read-out: EC50 values (μM), IL-2", "result": 10.5, "unit": "µM"}, {"measurement": "EC50", "setting": "[2]; [5]", "result": 0.5, "unit": "µM"}, {"measurement": "EC50", "setting": "[2]; [6]", "result": 0.51, "unit": "µM"}, {"measurement": "EC50", "setting": "[2]; [7]", "result": 6.25, "unit": "µM"}, {"measurement": "EC50", "setting": "[2]; +50 ng/ml IL-17F, read-out: EC50 values (μM), G-CSF", "result": 0.91, "unit": "µM"}, {"measurement": "EC50", "setting": "[2]; +50 ng/ml IL-17F, read-out: EC50 values (μM), IFN-γ", "result": 0.6, "unit": "µM"}, {"measurement": "EC50", "setting": "[2]; +50 ng/ml IL-17F, read-out: EC50 values (μM), IL-1β", "result": 0.79, "unit": "µM"}, {"measurement": "EC50", "setting": "[2]; [8]", "result": 0.38, "unit": "µM"}, {"measurement": "EC50", "setting": "[2]; [9]", "result": 0.52, "unit": "µM"}, {"measurement": "EC50", "setting": "[3]; [4]", "result": 1.99, "unit": "µM"}, {"measurement": "EC50", "setting": "[3]; [5]", "result": 6.98, "unit": "µM"}, {"measurement": "EC50", "setting": "[3]; [6]", "result": 0.54, "unit": "µM"}, {"measurement": "EC50", "setting": "[3]; [7]", "result": 1.33, "unit": "µM"}, {"measurement": "EC50", "setting": "[3]; [8]", "result": 4.45, "unit": "µM"}, {"measurement": "EC50", "setting": "[3]; [9]", "result": 0.45, "unit": "µM"}, {"measurement": "EC50", "setting": "[3]; +50 ng/ml IL-17F, read-out: EC50 values (μM), MCP-1", "result": 1.57, "unit": "µM"}]}
